Experimental data published in patent publication US20110230428A1, “CERTAIN KYNURENINE-3-MONOOXYGENASE INHIBITORS, PHARMACEUTICAL COMPOSITIONS, AND METHODS OF USE THEREOF” (priority 2008, published 2011).
Structures can show the parent of a compound that is named as a salt.

Each compound was assayed against T1, KMO mouse enzyme (Mus musculus, UniProt Q91WN4) (assay: KMO mouse enzyme assay: L-Kynurenine hydroxylation to 3OH-KYN by LC/MS). Details: compound at 10 μM; KMO from mouse liver mitochondria; read-out: INH.Mouse @ 10 μM.
T1 construct: KMO enzyme prepared at Evotec from mouse liver (4-6 weeks old) via mitochondria isolation; from tissue; host or cells: mouse liver (4-6 weeks old), isolated mitochondria
Format: biochemical
Method: A method of monitoring L-Kynurenine (KYN) hydroxylation to form 3-Hydroxy-Kynurenine (3OH-KYN) by LC/MS is described. Product is quantified by multiple reaction monitoring (MRM method).
• Compound: Stock concentrations: 10 mM in 100% DMSO • Enzyme: KMO enzyme prepared at Evotec from mouse liver (4-6 weeks old) via mitochondria isolation as described in the literature • Substrate: L-Kynurenine (Sigma: Cat# K3750, stock concentration: 10 mM in 100 mM potassium phosphate buffer, pH 7.4)
• Buffer: 100 mM potassium phosphate, pH 7.4, 200 μM NADPH, 0.4 U/ml G6P-DH (Glucose 6-phosphate Dehydrogenase), 3 mM G6P (D-Glucose 6-phosphate) • Assay Volume: 40 μl • Plate Format: 384 well plate, transparent (Matrix) • Read-Out: product (3OH-KYN) quantification using product specific MRM • Reader: LC/MS/MS
• prepare serial dilution (factor 3) of compound in 100% DMSO (top concentration=10 mM, 100% DMSO) • [8 points: 10 mM; 3.33 mM; 1.11 mM; 0.37 mM; 0.12 mM; 0.04 mM; 0.0137 mM; 0.0045 mM, 0.0015 mM] • prepare […] solution of each compound concentration (top concentration 300 μM, 3% DMSO) in assay buffer • [concentrations: 300 μM; 100 μM; 33.3 μM; 11.1 μM; 3.70 μM; 1.23 μM; 0.41 μM; 0.137 μM] • prepare substrate (10 mM) at concentration of 1 mM in assay buffer • assay mix: 4 μl compound/well of each concentration+24 μl assaybuffer/well+8 μl KMO mouse enzyme+4 μl 1 mM substrate (final concentration=100 μM) • [final compound top concentration: 30 μM; 0.3% DMSO] • [final compound bottom concentration: 0.0137 μM; 0.3% DMSO] • positive control: 4 μl 50 μM FCE28833 in assay buffer, 0.5% DMSO [final assay concentration=5 μM]+24 μl assaybuffer/well+8 μl KMO mouse enzyme+4 μl 1 mM substrate [final concentration=100 μM] • negative control: 28 μl assay buffer/well+8 μl KMO mouse enzyme+4 μl 1 mM substrate [final concentration=100 μM] • incubate 40 min at RT • add 40 μl/well 10% trichloro acetic acid in water to stop the assay and precipitate protein • centrifuge plate for 3 min at 4000 rpm • product detection by LC/MS (injection of 20 μl/well, 2 fold overfill of the 10 μl sample loop) Data analysis: IC50's are calculated using automated fitting algorithm (A+Analysis).
Using procedures similar to those described herein, the following compounds were assayed for activity.

T1 sequence (Q91WN4 whole entry): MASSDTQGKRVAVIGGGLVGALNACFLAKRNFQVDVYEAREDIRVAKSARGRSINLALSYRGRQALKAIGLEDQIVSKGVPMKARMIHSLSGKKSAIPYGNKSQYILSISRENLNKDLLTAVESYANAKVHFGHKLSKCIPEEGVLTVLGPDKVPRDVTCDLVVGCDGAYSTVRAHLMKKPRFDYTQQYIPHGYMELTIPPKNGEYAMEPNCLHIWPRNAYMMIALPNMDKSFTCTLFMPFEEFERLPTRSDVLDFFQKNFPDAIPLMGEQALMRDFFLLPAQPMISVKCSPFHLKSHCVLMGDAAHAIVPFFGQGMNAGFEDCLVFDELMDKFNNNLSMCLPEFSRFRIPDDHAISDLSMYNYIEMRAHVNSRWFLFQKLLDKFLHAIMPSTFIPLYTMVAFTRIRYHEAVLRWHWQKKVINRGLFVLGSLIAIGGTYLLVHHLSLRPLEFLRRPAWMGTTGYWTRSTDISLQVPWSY

| SMILES | inhibition at 10 µM [%] |
| --- | --- |
| CON=C(CCC(=O)Nc1ncc(C)nc1C)c1ccc(Cl)c(Cl)c1 [4-(3,4-Dichloro-phenyl)-N-(3,5-dimethyl-pyrazin-2-yl)-4-methoxyimino-butyramide] | 101 |
| CON=C(CCC(=O)Nc1c(C)cc(C)nc1C)c1ccc(Cl)c(Cl)c1 [4-(3,4-Dichloro-phenyl)-4-methoxyimino-N-(2,4,6-trimethyl-pyridin-3-yl)-butyramide] | 66.3 |
| CO/N=C(\CCC(=O)OC(C)C)c1ccc(Cl)c(Cl)c1 [4-(3,4-Dichloro-phenyl)-4-methoxyimino-butyric acid isopropyl ester] | 102 |
| CO/N=C(\CCC(=O)O)c1ccc(Cl)c(Cl)c1 [4-(3,4-Dichloro-phenyl)-4-methoxyimino-butyric acid] | 106 |
| CC(C)(C)OC(=O)NCCON=C(CCC(=O)O)c1ccc(Cl)c(Cl)c1 [4-[2-tert-Butoxycarbonylamino-ethoxyimino]-4-(3,4-dichloro-phenyl)-butyric acid] | 61.9 |
| CON=C(CCC(=O)NC1CCNC1)c1ccc(Cl)c(Cl)c1 (centres unmarked) [4-(3,4-Dichloro-phenyl)-4-methoxyimino-N-pyrrolidin-3-yl-butyramide] | 74.3 |
| CON=C(CCC#N)c1ccc(Cl)c(Cl)c1 [4-(3,4-Dichloro-phenyl)-4-methoxyimino-butyronitrile] | 74.6 |
| CON=C(CCC(=O)Nc1cncnc1)c1ccc(Cl)c(Cl)c1 [4-(3,4-Dichloro-phenyl)-4-methoxyimino-N-pyrimidin-5-yl-butyramide] | 98.5 |
| CON=C(CCC(=O)Nc1cnccn1)c1ccc(Cl)c(Cl)c1 [4-(3,4-Dichloro-phenyl)-4-methoxyimino-N-pyrazin-2-yl-butyramide] | 98 |
| CO/N=C(\CCC(=O)Oc1cccnc1)c1ccc(Cl)c(Cl)c1 [4-(3,4-Dichloro-phenyl)-4-methoxyimino-butyric acid pyridin-3-yl ester] | 105 |
| CON=C(CCC(=O)Nc1nncs1)c1ccc(Cl)c(Cl)c1 [4-(3,4-Dichloro-phenyl)-4-methoxyimino-N-[1,3,4]thiadiazol-2-yl-butyramide] | 95.2 |
| CNC(=O)CC/C(=N\OC)c1ccc(Cl)c(Cl)c1 [4-(3,4-Dichloro-phenyl)-4-methoxyimino-N-methyl-butyramide] | 93.7 |
| CON=C(c1ccc(Cl)c(Cl)c1)C1C[C@@H]1C(=O)OC (stereo partly drawn) [(1S,2S)-trans-2-[(3,4-Dichloro-phenyl)-methoxyimino-methyl]-cyclopropanecarboxylic acid methyl ester] | 61 |
| CON=C(CCC(=O)NCC(O)CO)c1ccc(Cl)c(Cl)c1 (centres unmarked) [4-(3,4-Dichloro-phenyl)-N-(2,3-dihydroxy-propyl)-4-methoxyimino-butyramide] | 75.7 |
| CON=C(CCc1nc2cnccc2[nH]1)c1ccc(Cl)c(Cl)c1 [1-(3,4-Dichloro-phenyl)-3-(1H-imidazo[4,5-c]pyridin-2-yl)-propan-1-one O-methyl-oxime] | 64.3 |
| CON=C(c1ccc(Cl)c(Cl)c1)[C@H]1C[C@@H]1C(=O)O [(1S,2S)-trans-2-[(3,4-Dichloro-phenyl)-methoxyimino-methyl]-cyclopropanecarboxylic acid] | 81.2 |
| CON=C(CCC(=O)Nc1cccnn1)c1ccc(Cl)c(Cl)c1 [4-(3,4-Dichloro-phenyl)-4-methoxyimino-N-pyridazin-3-yl-butyramide] | 101 |
| CON=C(CCC(=O)N1CCCCC1)c1ccc(Cl)c(Cl)c1 [1-(3,4-Dichloro-phenyl)-4-piperidin-1-yl-butane-1,4-dione 1-(O-methyl-oxime)] | 60.4 |
| CO/N=C(\CCC(=O)NC1CCN(C(=O)OC(C)(C)C)CC1)c1ccc(Cl)c(Cl)c1 [4-[4-(3,4-Dichloro-phenyl)-4-methoxyimino-butyrylamino]-piperidine-1-carboxylic acid tert-butyl ester] | 75.2 |
| COC(=O)CCC(=NOCCNC(=O)OC(C)(C)C)c1ccc(Cl)c(Cl)c1 [4-[2-tert-Butoxycarbonylamino-ethoxyimino]-4-(3,4-dichloro-phenyl)-butyric acid methyl ester] | 56.4 |
| CO/N=C(\CCC(=O)OC)c1ccc(Cl)c(Cl)c1 [4-(3,4-Dichloro-phenyl)-4-methoxyimino-butyric acid methyl ester] | 106 |
| CON=C(CCC(=O)Nc1c(C)ccnc1C)c1ccc(Cl)c(Cl)c1 [4-(3,4-Dichloro-phenyl)-N-(2,4-dimethyl-pyridin-3-yl)-4-methoxyimino-butyramide] | 85 |
| CON=C(CCC(=O)Nc1ccc(F)nc1)c1ccc(Cl)c(Cl)c1 [4-(3,4-Dichloro-phenyl)-N-(6-fluoro-pyridin-3-yl)-4-methoxyimino-butyramide] | 91.7 |

Further lines, results first:

| inhibition at 10 µM [%] | SMILES |
| --- | --- |
| 100 | CO/N=C(\CCC(=O)NC1CC1)c1ccc(Cl)c(Cl)c1 [N-Cyclopropyl-4-(3,4-dichloro-phenyl)-4-methoxyimino-butyramide] |
| 78.3 | CON=C(CCCC(=O)O)c1ccc(Cl)c(Cl)c1 [5-(3,4-Dichloro-phenyl)-5-methoxyimino-pentanoic acid] |
| 98.8 | CON=C(CCC(=O)NCC(C)O)c1ccc(Cl)c(Cl)c1 (centres unmarked) [4-(3,4-Dichloro-phenyl)-N-(2-hydroxy-propyl)-4-methoxyimino-butyramide] |
| 103 | CON=C(CCC(=O)Nc1ccccc1)c1ccc(Cl)c(Cl)c1 [4-(3,4-Dichloro-phenyl)-4-methoxyimino-N-phenyl-butyramide] |
| 57.3 | CON=C(CCC(=O)N1CCC(C)CC1)c1ccc(Cl)c(Cl)c1 [1-(3,4-Dichloro-phenyl)-4-(4-methyl-piperidin-1-yl)-butane-1,4-dione 1-(O-methyl-oxime)] |
| 96.4 | CO/N=C(\CCc1nn[nH]n1)c1ccc(Cl)c(Cl)c1 [1-(3,4-Dichloro-phenyl)-3-(2H-tetrazol-5-yl)-propan-1-one O-methyl-oxime] |
| 76.5 | CON=C(CCC(=O)Nc1ccncc1)c1ccc(Cl)c(Cl)c1 [4-(3,4-Dichloro-phenyl)-4-methoxyimino-N-pyridin-4-yl-butyramide] |
| 94.9 | CON=C(CCC(N)=O)c1ccc(Cl)c(Cl)c1 [4-(3,4-Dichloro-phenyl)-4-methoxyimino-butyramide] |
| 49.5 | NCCON=C(CCC(=O)O)c1ccc(Cl)c(Cl)c1 [4-[2-Amino-ethoxyimino]-4-(3,4-dichloro-phenyl)-butyric acid trifluoroacetic acid salt] |
| 107 | CCO/N=C(\CCC(=O)O)c1ccc(Cl)c(Cl)c1 [4-(3,4-Dichloro-phenyl)-4-ethoxyimino-butyric acid] |
| 63.4 | CO/N=C(\CCC(=O)N1CCOCC1)c1ccc(Cl)c(Cl)c1 [1-(3,4-Dichloro-phenyl)-4-morpholin-4-yl-butane-1,4-dione 1-(O-methyl-oxime)] |
| 99.4 | COC(=O)CCC(=NO)c1ccc(Cl)c(Cl)c1 [4-(3,4-Dichloro-phenyl)-4-hydroxyimino-butyric acid methyl ester] |
| 107 | CCO/N=C(\CCC(=O)OC)c1ccc(Cl)c(Cl)c1 [4-(3,4-Dichloro-phenyl)-4-ethoxyimino-butyric acid methyl ester] |
| 82.9 | CON=C(CCC(=O)Nc1ccc(C)nc1)c1ccc(Cl)c(Cl)c1 [4-(3,4-Dichloro-phenyl)-4-methoxyimino-N-(6-methyl-pyridin-3-yl)-butyramide] |
| 101 | CON=C(CCC(=O)Nc1ncccn1)c1ccc(Cl)c(Cl)c1 [4-(3,4-Dichloro-phenyl)-4-methoxyimino-N-pyrimidin-2-yl-butyramide] |
| 61.2 | CON=C(CCCC(=O)OC)c1ccc(Cl)c(Cl)c1 [5-(3,4-Dichloro-phenyl)-5-methoxyimino-pentanoic acid methyl ester] |
| 102 | CO/N=C(\CCC(=O)OC1CCCC1)c1ccc(Cl)c(Cl)c1 [4-(3,4-Dichloro-phenyl)-4-methoxyimino-butyric acid cyclopentyl ester] |
| 64.3 | CO/N=C(\CCC(=O)N(C)C)c1ccc(Cl)c(Cl)c1 [4-(3,4-Dichloro-phenyl)-4-methoxyimino-N,N-dimethyl-butyramide] |
